# Measured values: PubChem BioAssay (NCI)
#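 Results reflect a 48-hour exposure of cells in 96-well plates to compound at five concentrations. At the GI50, growth is halved. Definition used: TGI = concentration required for complete inhibition of growth.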
# Tests used:
# Assay in all cases: NCI anticancer screen, dose series, 48 h
# [1] = test system: 786-0 renal
# [2] = test system: A498 renal
# [3] = test system: A549 NSCLC
# [4] = test system: ACHN renal
# [5] = test system: BT-549 breast
# [6] = test system: CAKI-1 renal
# [7] = test system: CCRF-CEM leukemia
# [8] = test system: COLO 205 colon
# [9] = test system: DU-145 prostate
# [10] = test system: EKVX NSCLC
# [11] = test system: HCC-2998 colon
# [12] = test system: HCT-116 colon
# [13] = test system: HCT-15 colon
# [14] = test system: HL-60(TB) leukemia
# [15] = test system: HOP-62 NSCLC
# [16] = test system: HOP-92 NSCLC
# [17] = test system: HS 578T breast
# [18] = test system: HT29 colon
# [19] = test system: IGROV1 ovarian
# [20] = test system: K-562 leukemia
# [21] = test system: KM12 colon
# [22] = test system: LOX IMVI melanoma
# [23] = test system: M14 melanoma
# [24] = test system: MALME-3M melanoma
# [25] = test system: MCF7 breast
# [26] = test system: MDA-MB-231 breast
# [27] = test system: MDA-MB-435
# [28] = test system: MOLT-4 leukemia
# [29] = test system: NCI-H226 lung
# [30] = test system: NCI-H23 lung
# [31] = test system: NCI-H460 lung
# [32] = test system: NCI-H522 lung
# [33] = test system: NCI/ADR-RES ovarian
# [34] = test system: OVCAR-3 ovarian
# [35] = test system: OVCAR-4 ovarian
# [36] = test system: OVCAR-5 ovarian
# [37] = test system: OVCAR-8 ovarian
# [38] = test system: PC-3 prostate
# [39] = test system: RPMI-8226 leukemia
# [40] = test system: RXF 393 renal
# [41] = test system: SF-268 CNS
# [42] = test system: SF-295 CNS
# [43] = test system: SF-539 CNS
# [44] = test system: SK-MEL-2 melanoma
# [45] = test system: SK-MEL-28 melanoma
# [46] = test system: SK-MEL-5 melanoma
# [47] = test system: SK-OV-3 ovarian
# [48] = test system: SN12C renal
# [49] = test system: SNB-19 CNS
# [50] = test system: SNB-75 CNS
# [51] = test system: SR leukemia
# [52] = test system: SW-620 colon
# [53] = test system: T-47D breast
# [54] = test system: TK-10 renal
# [55] = test system: U251 CNS
# [56] = test system: UACC-257 melanoma
# [57] = test system: UACC-62 melanoma
# [58] = test system: UO-31 renal
smiles,measurement,setting,value
COc1ccc2c(Nc3ccc(NS(C)(=O)=O)cc3)c3ccccc3nc2c1,GI50,[1],544 nM
same,TGI,[1],4240 nM
same,GI50,[2],375 nM
same,TGI,[2],2050 nM
same,GI50,[3],151 nM
same,TGI,[3],2700 nM
same,GI50,[4],217 nM
same,TGI,[4],1580 nM
same,GI50,[5],1500 nM
same,TGI,[5],3670 nM
same,GI50,[6],450 nM
same,TGI,[6],5640 nM
same,GI50,[7],320 nM
same,TGI,[7],6030 nM
same,GI50,[8],384 nM
same,TGI,[8],1580 nM
same,GI50,[9],315 nM
same,TGI,[9],6460 nM
same,GI50,[10],1430 nM
same,TGI,[10],8200 nM
same,GI50,[11],732 nM
same,TGI,[11],2300 nM
same,GI50,[12],262 nM
same,TGI,[12],3960 nM
same,GI50,[13],1410 nM
same,TGI,[13],11400 nM
same,GI50,[14],427 nM
same,TGI,[14],4450 nM
same,GI50,[15],429 nM
same,TGI,[15],2720 nM
same,GI50,[16],136 nM
same,TGI,[16],2660 nM
same,GI50,[17],292 nM
same,TGI,[17],2640 nM
same,GI50,[18],326 nM
same,TGI,[18],1580 nM
same,GI50,[19],418 nM
same,TGI,[19],16700 nM
same,GI50,[20],674 nM
same,TGI,[20],> 100000 nM
same,GI50,[21],533 nM
same,TGI,[21],9190 nM
same,GI50,[22],285 nM
same,TGI,[22],2340 nM
same,GI50,[23],599 nM
same,TGI,[23],2030 nM
same,GI50,[24],652 nM
same,TGI,[24],2380 nM
same,GI50,[25],300 nM
same,TGI,[25],1990 nM
same,GI50,[26],1520 nM
same,TGI,[26],6650 nM
same,GI50,[27],817 nM
same,TGI,[27],2400 nM
same,GI50,[28],111 nM
same,TGI,[28],22500 nM
same,GI50,[29],229 nM
same,TGI,[29],1590 nM
same,GI50,[30],475 nM
same,TGI,[30],2490 nM
same,GI50,[31],61.8 nM
same,TGI,[31],1110 nM
same,GI50,[32],304 nM
same,TGI,[32],1840 nM
same,GI50,[33],3630 nM
same,TGI,[33],28600 nM
same,GI50,[34],990 nM
same,TGI,[34],3090 nM
same,GI50,[35],1230 nM
same,TGI,[35],4130 nM
same,GI50,[36],1020 nM
same,TGI,[36],4910 nM
same,GI50,[37],432 nM
same,TGI,[37],5260 nM
same,GI50,[38],735 nM
same,TGI,[38],10100 nM
same,GI50,[39],431 nM
same,TGI,[39],4090 nM
same,GI50,[40],871 nM
same,TGI,[40],2400 nM
same,GI50,[41],469 nM
same,TGI,[41],4030 nM
same,GI50,[42],381 nM
same,TGI,[42],2530 nM
same,GI50,[43],525 nM
same,TGI,[43],2280 nM
same,GI50,[44],334 nM
same,TGI,[44],2290 nM
same,GI50,[45],1380 nM
same,TGI,[45],3450 nM
same,GI50,[46],526 nM
same,TGI,[46],1890 nM
same,GI50,[47],364 nM
same,TGI,[47],5260 nM
same,GI50,[48],487 nM
same,TGI,[48],13200 nM
same,GI50,[49],445 nM
same,TGI,[49],11400 nM
same,GI50,[50],718 nM
same,TGI,[50],2120 nM
same,GI50,[51],112 nM
same,TGI,[51],6460 nM
same,GI50,[52],276 nM
same,TGI,[52],3290 nM
same,GI50,[53],340 nM
same,TGI,[53],3140 nM
same,GI50,[54],596 nM
same,TGI,[54],4960 nM
same,GI50,[55],475 nM
same,TGI,[55],9020 nM
same,GI50,[56],628 nM
same,TGI,[56],2170 nM
same,GI50,[57],383 nM
same,TGI,[57],1930 nM
same,GI50,[58],809 nM
same,TGI,[58],8870 nM
